Source: patent publication US20250134863A1, “MEDICAL AGENT FOR TREATING OR SUPPRESSING PROGRESSION OF AMYOTROPHIC LATERAL SCLEROSIS” (MITSUBISHI TANABE PHARMA CORPORATION, priority 2022, published 2025)

Tested on: ALS patients
Assay: Post-hoc statistical analysis 2: ALSFRS-R total score from baseline to cycle 12 (16, 17 and 19 trials), MMRM
Assay type: in vivo, human
From the text: After a 12-week observation period, patients whose ALSFRS-R total score decreased by 1 to 4 points during that period were considered eligible for the trial. In the 16 trial, eligible patients were randomly divided into an edaravone treatment group and a placebo administration group, and patients in each group received administration for 24 weeks (cycles 1 to 6). After completing the 24-week double-blind portion of the 16 trial, patients who received edaravone (E) were randomly assigned to the 17 trial, and during a 24-week double-blind extension period (cycles 7 to 12), edaravone treatment (EE group) or placebo administration (EP group) was performed. On the other hand, all patients from the placebo (P) administration group received edaravone treatment (PE group). All patients received open-label edaravone treatment for the next 12 weeks (cycles 13 to 15).
Edaravone was administered at a dose of 60 mg by intravenous infusion over 60 minutes, once daily. The infusion was given for 14 days in the first treatment cycle, and for 10 days out of the 14-day treatment period in all subsequent cycles. A 14-day drug holiday period was provided after each treatment cycle.
Similar to the 16 trial, after a 12-week observation period, patients in the 19 trial were randomly divided into an edaravone treatment group and a placebo administration group, and patients in each group received administration for 24 weeks (cycles 1 to 6). In the 19 trial, after the double-blind treatment period, all patients received open-label edaravone treatment for an additional 24 weeks (cycles 7 to 12). Therefore, the 19 trial included an EE group and a PE group.
In order to characterize the uric acid level and ALSFRS-R total score profiles at cycle 12, efficacy was analyzed in randomized ALS patients at the start of cycle 7 and randomized ALS patients who received the medical agent at least once after the start of cycle 7.
Descriptive statistics (number of subjects, mean, standard deviation, minimum, maximum) were used to summarize the changes in uric acid levels (mg/dL) and ALSFRS-R total scores from baseline to cycle 12 for the entire population and for the Edaravone treatment group as a subgroup defined by the median baseline uric acid level (4.8 mg/dL). The median baseline uric acid level for all patients (4.8 mg/dL) was derived using the entire edaravone population, including the EE, PE, and EP groups in the 16 trial, the 17 trial, and the 19 trial.
The least squares (LS) mean difference of the EE and EP treatment groups compared to the PE treatment group was estimated using a mixed-effects model for repeated measures (MMRM). By using the MMRM, the LS mean, standard error, 95% confidence interval (CI), and p-value for each group are calculated. The MMRM includes treatment group, time point, interaction between treatment group and time point, age (<65 years or >65 years), initial symptoms (bulbar or limb symptoms), ALS diagnostic criteria (ALS definite, ALS highly possible, ALS highly possible with positive test findings, ALS possible), change in ALSFRS-R total score during the 12-week observation period (−1/−2 or −3/−4), and use of riluzole (Yes or No) as fixed effects, and includes baseline of the ALSFRS-R total score or uric acid baseline (mg/dL) of the median subgroup as covariates. A compound symmetric covariance matrix was applied to model covariance of within-patient scores, and the Kenward-Roger approximation was applied to estimate a degrees of freedom of the criteria. The statistical significance level was set at a two-sided level of 0.05.

[1] = Subgroup with uric acid level baseline <4.8 mg/dL, EE group
[2] = Subgroup with uric acid level baseline <4.8 mg/dL, EP group
[3] = Subgroup with uric acid level baseline <4.8 mg/dL, PE group
[4] = Subgroup with uric acid level baseline ≥4.8 mg/dL, EE group
[5] = Subgroup with uric acid level baseline ≥4.8 mg/dL, EP group
[6] = Subgroup with uric acid level baseline ≥4.8 mg/dL, PE group

SMILES: CC1=NN(c2ccccc2)C(=O)C1 [edaravone, 3-methyl-1-phenyl-2-pyrazolin-5-one]
- ALSFRS-R total score change from BL to cycle 12, LS Mean (SE) (Overall, EE group): −7.2 (1.17) points
- ALSFRS-R total score change from BL to cycle 12, Mean (SD) (Overall, EE group): −8.1 points
- ALSFRS-R total score change from BL to cycle 12, Mean (SD) (Overall, EE group, listed as Edaravone): −8.1 (5.97) points
- ALSFRS-R total score change from BL to cycle 12, LS Mean (SE) (Overall, EP group): −8.7 (1.28) points
- ALSFRS-R total score change from BL to cycle 12, Mean (SD) (Overall, EP group): −9.6 (6.88) points
- ALSFRS-R total score at Cycle 12, Mean (SD) (Overall, Edaravone-Edaravone (EE) group): 33.3 (7.66) points
- ALSFRS-R total score at Cycle 12, Mean (SD) (Overall, Edaravone-Placebo (EP) group): 31.3 (7.74) points
- ALSFRS-R total score change from BL to cycle 12, LS Mean (SE) (Overall, PE group): −9.9 (1.12) points
- ALSFRS-R total score change from BL to cycle 12, Mean (SD) (Overall, PE group): −10.3 (7.70) points
- ALSFRS-R total score at Cycle 12, Mean (SD) (Overall, Placebo-Edaravone (PE) group): 31.2 (8.64) points
- ALSFRS-R total score at Cycle 12, Mean (SD) [1]: 32.6 (8.48) points
- ALSFRS-R total score change from BL to cycle 12, LS Mean (SE) [1]: −7.0 (1.38) points
- ALSFRS-R total score change from BL to cycle 12, Mean (SD) [1]: −8.7 points
- ALSFRS-R total score change from BL to cycle 12, Mean (SD) (Subgroup with uric acid level baseline <4.8 mg/dL, EE group, listed as Edaravone): −8.7 (6.95) points
- ALSFRS-R total score at Cycle 12, Mean (SD) [2]: 31.5 (7.66) points
- ALSFRS-R total score change from BL to cycle 12, LS Mean (SE) [2]: −7.8 (1.78) points
- ALSFRS-R total score change from BL to cycle 12, Mean (SD) [2]: −9.7 (7.17) points
- ALSFRS-R total score at Cycle 12, Mean (SD) [3]: 31.6 (7.99) points
- ALSFRS-R total score change from BL to cycle 12, LS Mean (SE) [3]: −8.5 (1.37) points
- ALSFRS-R total score change from BL to cycle 12, Mean (SD) [3]: −9.7 (7.30) points
- ALSFRS-R total score at Cycle 12, Mean (SD) [4]: 34.0 (6.65) points
- ALSFRS-R total score change from BL to cycle 12, LS Mean (SE) [4]: −8.1 (0.91) points
- ALSFRS-R total score change from BL to cycle 12, Mean (SD) [4]: −7.4 points
- ALSFRS-R total score change from BL to cycle 12, Mean (SD) (Subgroup with uric acid level baseline ≥4.8 mg/dL, EE group, listed as Edaravone): −7.4 (4.63) points
- ALSFRS-R total score at Cycle 12, Mean (SD) [5]: 31.1 (7.97) points
- ALSFRS-R total score change from BL to cycle 12, LS Mean (SE) [5]: −10.3 (1.05) points
- ALSFRS-R total score change from BL to cycle 12, Mean (SD) [5]: −9.5 (6.82) points
- ALSFRS-R total score at Cycle 12, Mean (SD) [6]: 30.8 (9.20) points
- ALSFRS-R total score change from BL to cycle 12, LS Mean (SE) [6]: −12.0 (0.77) points
- ALSFRS-R total score change from BL to cycle 12, Mean (SD) [6]: −10.9 (8.03) points
